Results taken from patent publication US20110217265A1, “Screening for Inhibitors of HCV Amphipathic Helix (AH) Function” (priority 2008, published 2011).

Legend:
genotype 1b 4BAH2 = genotype 1b 4BAH2 (Hepatitis C virus genotype 1b, UniProt Q9WMX2); test: QCM-D of 4BAH2 membrane association with POPC bilayer, genotype 1b; format: binding; parameters: purchased Anaspec Corporation (San Jose, Calif., USA)
Experimental: (§1) Quartz Crystal Microbalance-Dissipation (QCM-D). Adsorption kinetics and the properties of the adsorbed layer were studied using a Q-Sense E4, multiple channel system (Q-Sense AB, Gothenburg, Sweden). The samples are introduced using a peristaltic pump with flow rate of 0.1 mL·min^−1. AT-cut quartz crystals (Q-Sense) of 14 mm in diameter coated with a SiOx layer were used for all vesicle interaction and adsorption experiments. Each QCM crystal was treated with oxygen plasma at ˜80 watts for 3 min prior to measurement (March Plasmod Plasma Etcher, March Instruments, California, USA). Each crystal was initially driven near its resonance frequency as indicated by a maximum in the current. To capture the characteristic dissipation, the drive circuit was short-circuited and the exponential decay of the crystal oscillation was recorded and analyzed, yielding the frequency and dissipation changes at 5, 15, 25, 35, 45, 55, and 65 MHz. The temperature of the Q-Sense cell was set at 25.0° C. and accurately controlled by a Peltier element in the cell with fluctuation smaller than ±0.05° C. All experiments were repeated at least three times, with a standard deviation of less than 2%.

genotype 2a 4BAH2 [1] = biological target: T1, genotype 2a 4BAH2 (Hepatitis C virus genotype 2a, UniProt Q99IB8); test: QCM-D of 4BAH2 membrane association with POPC bilayer, genotype 2a; format: binding; parameters: purchased Anaspec Corporation (San Jose, Calif., USA)
Experimental: as §1

Huh7.5 cells = test: Alamar Blue cell viability assay; format: cell-based, human; settings: in parallel with replication assays, 72 hr
genotype 2a 4BAH2 [2] = biological target: T1, genotype 2a 4BAH2; test: DLS assay of 4BAH2-induced POPC lipid vesicle aggregation, genotype 2a peptide; format: biochemical; parameters: purchased Anaspec Corporation (San Jose, Calif., USA); host or cells: chemical synthesis; settings: POPC vesicles
Experimental: Small Unilamellar Vesicle Preparation. Vesicles of 1-palmitoyl-2-oleoyl-sn-glycero-3-phosphocholine (POPC) (Avanti Polar Lipids, Alabaster, Ala., USA) with well-defined size distributions were prepared by the extrusion method. Throughout the experiments, we used a phosphate buffered saline (PBS) buffer (10 mM, pH 7.5 and 150 mM NaCl) in […] MilliQ water (Millipore, Oregon, USA). Extruded vesicles (referred to simply as vesicles) were prepared in the following manner. Lipid films were prepared by first drying the as-supplied lipids dissolved in chloroform under a gentle stream of nitrogen at room temperature. Then the resulting lipid film was stored under vacuum for at least 5 hr in order to remove residual chloroform. Vesicles were prepared by first swelling the lipid film in aqueous solution then vortexing periodically for 5 min. […]
Dynamic Light Scattering. Dynamic light scattering (DLS) was performed using a doubled, Nd:YAG laser (model 532 DPSS, Coherent Laser Group, Santa Clara, Calif.) with a wavelength, λ, of […] and a Brookhaven digital autocorrelator, and analyzed by digital autocorrelator software (Brookhaven Instruments Corporation, New York, USA). […] DLS results were analyzed to give an intensity-weighted size distribution using a discrete Laplace inversion routine. […]

T1 sequence (Q99IB8 1758-1780): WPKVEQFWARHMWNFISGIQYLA
genotype 1b 4BAH2, sequence (Q9WMX2 1754-1776): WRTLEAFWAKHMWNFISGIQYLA

CC(C)CN(C)c1nc(N)c(C(=O)NC(=N)N)nc1Cl [C4, 3-amino-N-carbamimidoyl-6-chloro-5-(isobutyl(methyl)amino)pyrazine-2-carboxamide]
Effect on genotype 1b 4BAH2 membrane association (QCM-D) (genotype 1b 4BAH2): no effect
Effect on genotype 2a 4BAH2 membrane association (QCM-D) (genotype 2a 4BAH2 [1]): no effect
Cellular toxicity (Alamar Blue viability) (Huh7.5 cells): No significant cellular toxicity
Inhibition of genotype 2a 4BAH2-induced vesicle aggregation (DLS) (genotype 2a 4BAH2 [2]): essentially abrogated
